Results as given in patent US6770122B2, “Copper deposition using copper formate complexes” (E. I. du Pont de Nemours and Company, priority 2001, dated 2004).

Legend:
[1] = Procedure: A common technique used in dissolving metal complexes in supercritical carbon dioxide is to add a co-solvent (Cross et al.). The requirements of a co-solvent have been defined (Cross et al.). Methanol and other alcohols are commonly used. […] In these measurements, the complex was dissolved in 0.25-1 mL of methanol or 1-butanol and then shaken with 5-10 mL hexane; solubility was indicated by formation of a homogeneous blue solution. Alcohols such as methanol and 1-butanol are totally miscible with supercritical carbon dioxide at ambient temperatures and high pressure (Cross et al). Between 2 to 5% cosolvent is typically used in order to retain supercritical properties of the solvent at reasonable temperatures and pressures.
[2] = Solubility in hexane, judged by blue colour of the solution; settings: no co-solvent, qualitative
Protocol: Copper formate complexes were prepared using 1-octyl-2-ethyl-4-methylimidazole and 1-hexyl-2-ethyl-4-methylimidazole as ligands.

| solubility in hexane with co-solvent (or supercritical carbon dioxide with co-solvent) [1] | Compound | solubility in hexane (blue color of solution) [2] | solubility in hexane (blue color of solution) ([2]; listed as Cu(1-octyl-4-ethyl-2-methylimidazole)2(HCOO)2H2O) |
| --- | --- | --- | --- |
| 1-(2-ethylhexyl)-2-ethyl-4-methyl- | CCCCC(CC)Cn1cc(C)nc1CC (centres unmarked) [1-(2-ethylhexyl)-2-ethyl-4-methylimidazole] | – | – |
| 1-(2-ethylhexyl)pyrazole | CCCCC(CC)Cn1cccn1 (centres unmarked) [1-(2-ethylhexyl)pyrazole] | – | – |
| 4-t-butylpyridine | CC(C)(C)c1ccncc1 [4-t-butylpyridine] | – | – |
| – | Cu(1-octyl-4-ethyl-2-methylimidazole)2(HCOO)2H2O | dissolves in hexane to yield a blue solution | soluble in hexane |
